Test: Release of fluorometholone in the rabbit eye, measured in aqueous humor
Assay type: in vivo
Conditions: measured by fluorometholone contained in the aqueous humor
Method: The viscous gels that result upon administration of the aqueous suspensions of this invention to the eye have residence times in the eye ranging from about 2 to about 12 hours, e.g., from about 3 to about 6 hours. The active ingredients contained in these ophthalmically acceptable vehicles are released from the gels at rates that depend on such factors as the active ingredient itself and its physical form, the extent of drug loading and the pH of the system, as well as on any drug delivery adjuvants, such as ion exchange resins compatible with the ocular surface, which can also be present.

Release rates in the rabbit eye: in excess of four hours
SMILES: CC(=O)[C@@]1(O)CC[C@H]2[C@@H]3C[C@H](C)C4=CC(=O)C=C[C@]4(C)[C@@]3(F)[C@@H](O)C[C@@]21C [fluorometholone]

Source: US8501800B2, “Controlled-release ophthalmic vehicles” (Insite Vision Incorporated, priority 2009, dated 2013)
